Earlier results as cited in patent publication US20030171329A1, “Stable compositions comprising tezacitabine” (priority 2002, published 2003).
Where two headings read alike, the source gives them in different places.

Key:
[1] = cited from earlier work
[2] = molecular target: T1, ribonucleotide reductase (Homo sapiens, UniProt P23921); settings: cited from earlier work
T1 sequence (P23921 1-792): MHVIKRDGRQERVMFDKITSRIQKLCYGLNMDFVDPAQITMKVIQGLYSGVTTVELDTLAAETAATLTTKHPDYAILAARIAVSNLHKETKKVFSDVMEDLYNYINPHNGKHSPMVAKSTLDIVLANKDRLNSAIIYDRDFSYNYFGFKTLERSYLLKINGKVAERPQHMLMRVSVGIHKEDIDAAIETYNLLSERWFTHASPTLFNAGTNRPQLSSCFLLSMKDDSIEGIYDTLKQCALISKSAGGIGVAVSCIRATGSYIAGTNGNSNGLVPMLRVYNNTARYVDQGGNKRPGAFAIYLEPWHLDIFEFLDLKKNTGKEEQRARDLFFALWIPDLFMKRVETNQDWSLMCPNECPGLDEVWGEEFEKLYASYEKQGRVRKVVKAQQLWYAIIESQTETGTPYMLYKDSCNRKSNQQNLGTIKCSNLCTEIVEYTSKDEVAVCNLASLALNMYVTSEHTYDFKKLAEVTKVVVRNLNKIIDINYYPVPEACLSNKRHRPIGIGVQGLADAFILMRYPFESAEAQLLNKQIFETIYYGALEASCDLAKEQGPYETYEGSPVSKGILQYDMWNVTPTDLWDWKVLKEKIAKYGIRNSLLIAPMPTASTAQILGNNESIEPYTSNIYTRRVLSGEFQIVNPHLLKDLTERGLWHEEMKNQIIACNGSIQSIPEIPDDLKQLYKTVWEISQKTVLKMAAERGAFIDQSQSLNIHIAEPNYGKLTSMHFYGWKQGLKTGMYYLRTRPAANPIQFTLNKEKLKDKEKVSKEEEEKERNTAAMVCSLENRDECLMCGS
T1 sequence (P31350 1-389 partner): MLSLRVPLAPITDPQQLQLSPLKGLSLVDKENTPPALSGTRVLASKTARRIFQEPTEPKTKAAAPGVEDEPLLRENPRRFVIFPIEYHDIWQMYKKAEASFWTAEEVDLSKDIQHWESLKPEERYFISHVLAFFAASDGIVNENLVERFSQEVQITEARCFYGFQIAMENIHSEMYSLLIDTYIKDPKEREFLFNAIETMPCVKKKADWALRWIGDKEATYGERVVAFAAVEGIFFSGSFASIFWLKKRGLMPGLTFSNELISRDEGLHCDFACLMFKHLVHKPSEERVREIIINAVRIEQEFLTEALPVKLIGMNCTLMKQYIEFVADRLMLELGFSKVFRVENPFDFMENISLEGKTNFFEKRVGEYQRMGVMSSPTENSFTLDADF

[3] = system: replicating strand of DNA; settings: incorporated directly into the replicating strand of DNA; cited from earlier work

## Nc1ccn([C@@H]2O[C@H](CO)[C@@H](O)[C@@H]2O)c(=O)n1 [Cytarabine]
[1]; aqueous solution
  pH of best stability: most stable at neutral pH (7-8)

## Nc1ccn([C@@H]2O[C@H](CO)[C@@H](O)C2(F)F)c(=O)n1 [Gemcitabine]
[1]; acid conditions (low pH)
  stability in words: relatively stable
[1]; high pH
  stability in words: considerably less stable

## Nc1ccn(C2OC(COP(=O)(O)OP(=O)(O)O)C(O)C2=CF)c(=O)n1 (centres unmarked) [tezacitabine diphosphate]
[2]
  effect on ribonucleotide reductase: inhibits ribonucleotide reductase

## Nc1ccn(C2OC(COP(=O)(O)OP(=O)(O)OP(=O)(O)O)C(O)C2=CF)c(=O)n1 (centres unmarked) [tezacitabine triphosphate]
[3]
  effect on DNA synthesis: causes premature chain termination
